According to patent US20190292605A1, “Biomarkers of Response to Cyclin D-CDK4/6 Targeted Therapies in Cancer” (The Regents of the University of California, priority 2014, published 2019):
Like-named read-outs stand apart in the source and are kept apart here.

Tests used:
[1] = tested on: human melanoma cell lines; assay: response to palbociclib treatment in 48 melanoma cell lines; type: cell-based
From the text: Melanoma, a malignancy originating in pigment-producing melanocytes, is generally resistant to conventional treatments such as radiotherapy or chemotherapy. Molecular targeted therapeutics against BRAF and MEK have shown marked efficacy for patients with metastatic melanoma. However these targeted therapies have a limited duration of response. […] Our main goal in this study was to evaluate the therapeutic potential of palbociclib in a large panel of human melanoma cell lines to identify potential biomarkers of sensitivity and resistance. Material and Methods: We evaluated the response palbociclib treatment in 48 melanoma cell lines. A comprehensive biomarker screen was performed using mutation and gene expression (Agilent) data. The mechanism of action of the drug, phospho-Rb and senescence, was investigated by western blot (WB) analysis. Effects on the cell cycle and apoptosis were study by flow cytometry.

[2] = tested on: 17 gastric and 27 colon cancer cell lines; assay: dose response in gastric and colon cancer cell line panels; type: cell-based; conditions: Homo sapiens; 14 of the 44 gastric and colon cancer cell lines tested; read-out: anti-proliferative activity (concentration)
Experimental: Methods: Panels of 17 gastric and 27 colon cancer cell lines were exposed in vitro to palbociclib over various concentrations to generate dose response curves. Analysis of variance (ANOVA) was used to identify differentially expressed genes between sensitive and resistant cell lines. Genes identified by ANOVA and effects of palbociclib on pRB were analyzed via western blot.

[3] = tested on: colon cancer; conditions: patients; cited from earlier work

IC50 ([1]; 48 melanoma cell lines, read-out: IC50, lower end of range across melanoma cell lines) [nM] | IC50 ([1]; 48 melanoma cell lines, read-out: IC50, upper end of range across melanoma cell lines) [nM] | IC50 ([1]; subset (14/48) of melanoma cell lines, clinically achievable concentrations, read-out: IC50 of cell lines classified as sensitive) [nM] | IC50 [2] [nM] | Structure (SMILES) | clinical benefit [3]
28 | > 1000 | < 150 | < 150 | CC(=O)c1c(C)c2cnc(Nc3ccc(N4CCNCC4)cn3)nc2n(C2CCCC2)c1=O [palbociclib] | –
– | – | – | – | CCN1CCN(Cc2ccc(Nc3ncc(F)c(-c4cc(F)c5nc(C)n(C(C)C)c5c4)n3)nc2)CC1 [LY2835219] | beneficial in colon cancer
